In patent US20040072753A1, “Peptides for use in the treatment of alzheimer's disease” (priority 2000, published 2004):
Where a SMILES comes first, the peptide text is derived from it. Where no end group is shown, it is not given here. [ ]: non-standard residue; d: D form. pS = N[C@@H](COP(=O)(O)O)C(=O)O

Tests used:
[1] = tested on: SP2/0-Ag-14 mouse myeloma cells; experiment: Cytotoxicity of Aβ peptides, trypan blue dye exclusion; format: cell-based; conditions: test peptides 20 μM, 24 hours
Experimental: SP2/0-Ag-14 mouse myeloma cells were maintained in RPMI 1640 medium containing 10% fetal calf serum at 37° C. in a 5% CO2 humidified atmosphere. For cytotoxicity experiments 2×1 05 cells were plated in 24 well dishes in 1 ml PBS containing 0.1% BSA and test peptides (20 μM) for 24 hours. Cell viability was determined by trypan blue dye exclusion with at least 100 cells counted per well (Milton, Biochem. J. 344: 293-296 (1999)).

[2] = target: T1, catalase EC 1.11.1.6 from human erythrocytes (Homo sapiens, UniProt P04040); experiment: Catalase enzyme activity, inhibition by Aβ peptides; format: biochemical; conditions: test peptides 2 μM
T1 construct: catalase EC 1.11.1.6 from human erythrocytes (Sigma, Dorset, UK) was used; purchased Sigma, Dorset, UK; host or cells: human erythrocytes
T1 sequence (P04040 2-527 limits assumed): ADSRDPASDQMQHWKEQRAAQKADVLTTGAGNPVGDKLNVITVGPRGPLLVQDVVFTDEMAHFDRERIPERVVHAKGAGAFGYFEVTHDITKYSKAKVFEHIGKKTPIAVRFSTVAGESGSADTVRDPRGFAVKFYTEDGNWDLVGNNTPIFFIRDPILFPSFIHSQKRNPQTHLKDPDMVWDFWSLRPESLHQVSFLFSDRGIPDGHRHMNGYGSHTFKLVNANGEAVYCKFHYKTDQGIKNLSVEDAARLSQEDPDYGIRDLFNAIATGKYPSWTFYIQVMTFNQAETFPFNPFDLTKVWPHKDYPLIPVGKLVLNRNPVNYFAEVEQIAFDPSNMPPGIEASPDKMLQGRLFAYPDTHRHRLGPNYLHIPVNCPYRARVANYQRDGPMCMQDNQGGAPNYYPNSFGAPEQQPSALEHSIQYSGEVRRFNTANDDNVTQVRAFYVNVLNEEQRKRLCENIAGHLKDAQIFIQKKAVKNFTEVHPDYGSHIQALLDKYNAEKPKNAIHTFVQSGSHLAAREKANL
Experimental: For catalase activity catalase EC 1.11.1.6 from human erythrocytes (Sigma, Dorset, UK) was used for all incubation experiments. Activity of Catalase (5kU I^−1) incubated with test peptides (2 μM) was determined after incubation in 60 mM sodium-potassium phosphate buffer at 37° C. in a total volume of 100 μl. After incubation catalase activity was determined by mixing 50 μl sample with 50 μl substrate (6.5 μmol H2O2 in phosphate buffer) for 60 secs, adding 100 μl of 32.4 mM ammonium molybdate and measurement of absorbance change at 405 nm. Catalase activity was calculated from a standard curve (0-10OkU I^−1) using purified human catalase of known activity (Milton, Biochem. J. 344: 293-296 (1999)).

biotinylated Aβ 1-42 = biotinylated Aβ 1-42 (Homo sapiens, UniProt P05067); experiment: Binding of biotinylated Aβ 1-42 to CAβBP or EAβBP coated plates (ELISA, Scatchard); conditions: biotinylated peptide 200 pM
Experimental: After washing to remove unbound material, an alkaline phosphatase polymer-streptavidin conjugate (Sigma, Dorset, UK) was added and incubated at 37° C. for 2 hours. After washing to remove unbound material, p-nitrophenylphosphate substrate was added and absorbance at 405 nm determined.

biotinylated Aβ 25-35 = biotinylated Aβ 25-35 (Homo sapiens, UniProt P05067); experiment: Binding of biotinylated Aβ 25-35 to CAβBP or EAβBP coated plates (ELISA); conditions: biotinylated peptide 200 pM
Experimental: Biotinylated Aβ1-42, Aβ12-28 and Aβ 25-35 (from SEQ ID NO. 2) were prepared using a LinKit-Biolink kit (ISL, Paignton, UK). ELISA plates were coated with CAβBP (catalase residues 400409) or EAβBD (ERAB residues 99-108) (1 μg ml^−1) in carbonate buffer and unoccupied sites blocked with 5% (w/v) dried milk. Biotinylated peptides (200 pM) were incubated alone, with control peptides or with unlabelled Aβ peptides in PBS (containing 0.1% BSA and 0.05% Tween-20) at 37° C. for 4 hours. After washing to remove unbound material, an alkaline phosphatase polymer-streptavidin conjugate (Sigma, Dorset, UK) was added and incubated at 37° C. for 2 hours. After washing to remove unbound material, p-nitrophenylphosphate substrate was added and absorbance at 405 nm determined. Affinity constants were determined by incubating catalase or CAβBP coated plates with biotinylated peptides (200 pM) plus Aβ peptides over a range of concentrations (0-100 nM) and detection of bound peptides was carried out by ELISA.

recombinant human cdc2 = recombinant human cdc2 (Homo sapiens, UniProt P06493); experiment: Binding of biotinylated Aβ peptides to recombinant human cdc2 coated plates (ELISA); conditions: for binding to human cdc2: biotinylated peptide 200 pM, 37° C. 4 hours
Experimental: After washing to remove unbound material, an alkaline phosphatase polymer-streptavidin conjugate (Sigma, Dorset, UK) was added and incubated at 37° C. for 2 hours.

[3] = target: T2, recombinant p34-cdc2/cyclin B1 (Homo sapiens, UniProt P06493); experiment: Phosphorylation of biotinylated Aβ peptides by recombinant p34-cdc2/cyclin B1 (32P incorporation); format: biochemical; conditions: for phosphorylation by cdc2 (incorporation of 32P from γ32P-ATP): 25 μM biotinylated peptide, 10 min at 30° C.
T2 construct: purchased Promega, UK
Excerpt: (§1) The membrane was washed four times in 2 M NaCl, followed by four times in 2 M NaCl containing 1% (v/v) H3PO4 and finally twice in deionized H2O to remove unbound material.

Human NT-2 neurons [4] = experiment: Immunoassay of ir-pSAβ and ir-Aβ in extracts of NT-2 neurons exposed to Aβ 17-35 derivatives; format: cell-based; conditions: for levels of immunoreactive Aβ (ir-Aβ) in exposed cells: cell extracts; for ir-pSAβ in extracts of exposed cells: versus control cells
Experimental: To establish whether Aβ is phosphorylated in the Alzheimer's brain, Alzheimer disease brain sections were obtained from Novagen Inc (Madison, Wis., USA. Cat No: 70298-3; Lot No: A301036). Sections were deparaffinised and extracted in DEA buffer supplemented with 0.1 mM sodium vanadate. Extracts from NT-2 neurons were also prepared using the same buffer. Using a polyclonal anti-AB 15-30 antiserum plus Protein-A agarose, the Aβ was immunoprecipitated. The resultant extracts were further purified using a Sep-Pak C18 extraction step. Columns were pre-wetted with methanol and 0.5M acetic acid and the samples were applied in 20% acetonitrile in 0.1% TFA. […] After drying under a stream of nitrogen, samples were resuspended in appropriate buffer. For SDS-PAGE analysis, samples were resuspended in gel loading buffer and run on a 15% acrylamide gel. After immunoblotting onto nitrocellulose membranes, the blots were stained with anti-Aβ, anti-phosphoserine, anti-phosphotyrosine or anti-phosphothreonine antibodies. Bands were visualized with anti-mouse or anti-rabbit IgG-HRP conjugates and TMB membrane substrate. […] ELISA plates were coated with anti-phosphoserine antiserum for pSAβ determination and blocked with 5% dried milk. Samples or synthetic Aβ standards (Aβ 17-35 pS) were applied in PBS containing 0.1% BSA plus 0.05% Tween 20. Monoclonal antibody ALI-01 was added and incubated for 2 hrs. After washing to remove unbound material, ir-pSAβ was detected using an anti-rabbit IgG-HRP conjugate and TMB substrate. A similar assay in which the pS antibody was replaced with a polyclonal anti-Aβ antibody was used to measure Aβ levels.

Human NT-2 neurons [5] = experiment: Cytotoxicity assay, MTT reduction in human NT-2 neurons; format: cell-based; conditions: for effect on MTT utilisation: 24 h incubation
Experimental: In order to assess the effects of Aβ phosphorylation on the cytotoxic properties of Aβ peptides, a series of Aβ 17-35 derivatives were synthesised. The 17-35 region of Aβ contains the serine residue (serine 26) which is proposed to be phosphorylated by p34-cdc2, and also contains the ERAB binding (17-20) and cytotoxic domains (31-35) thought to play roles in Aβ cytotoxicity. The peptides were tested in a cytotoxicity assay as follows. Human NT-2 (NTera2/D1) precursor cells were propagated in DMEM/F12 medium supplemented with retinoic acid for 5-6 weeks prior to harvesting and replating in the presence of mitotic inhibitors, to generate post-mitotic Human NT-2 neurons. For cytotoxicity experiments, 5×10^3 cells/100 μl, medium were plated in Poly-D-lysine coated 96 well plates. Test peptides (20 μM) were added directly to culture medium prior to incubation for 24 h. Cell viability was determined by measurement of MTT (3-(4,5-dimethylthiazol-2-yl)-2,5-diphenyl tetrazolium bromide) reduction (Shearman, Methods Enzymol. 309: 716-723 (1999)). After incubation with peptides MTT (10 μl: 12 mM stock) was added and cells incubated for a further 4 hours. Cell lysis buffer [100 μl/well; 20% (v/v) SDS, 50% (v/v) N,N-dimethylformamide, pH 4.7] was added and, after repeated pipetting to lyse cells, calorimetric determination of MTT formazan product formation was determined by measuring the absorbance change at 540 nm. Control levels in the absence of peptide were taken as 100%, with the absorbance in the absence of cells taken as 0%.

cdc2/cyclin B1 = target: T3, cdc2/cyclin B1 (Homo sapiens, UniProt P06493+P14635); experiment: cdc2/cyclin B1 phosphorylation of biotinylated histone H1 substrate peptide; format: biochemical
T3 construct: purchased Promega, UK
Excerpt: as §1
Since Aβ binds to both the cdc2 and cyclin B1 components of the active enzyme it is possible that Aβ modulates the activity of the kinase.

T2 sequence (P06493 whole entry): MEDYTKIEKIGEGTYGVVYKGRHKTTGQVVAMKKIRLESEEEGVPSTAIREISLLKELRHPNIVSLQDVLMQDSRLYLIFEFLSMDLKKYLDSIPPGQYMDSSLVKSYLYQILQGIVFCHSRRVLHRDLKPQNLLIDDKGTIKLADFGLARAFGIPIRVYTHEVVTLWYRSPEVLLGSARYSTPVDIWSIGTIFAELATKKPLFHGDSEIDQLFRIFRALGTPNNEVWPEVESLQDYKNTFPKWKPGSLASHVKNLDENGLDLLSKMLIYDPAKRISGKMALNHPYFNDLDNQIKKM
T2 sequence (P14635 whole entry partner): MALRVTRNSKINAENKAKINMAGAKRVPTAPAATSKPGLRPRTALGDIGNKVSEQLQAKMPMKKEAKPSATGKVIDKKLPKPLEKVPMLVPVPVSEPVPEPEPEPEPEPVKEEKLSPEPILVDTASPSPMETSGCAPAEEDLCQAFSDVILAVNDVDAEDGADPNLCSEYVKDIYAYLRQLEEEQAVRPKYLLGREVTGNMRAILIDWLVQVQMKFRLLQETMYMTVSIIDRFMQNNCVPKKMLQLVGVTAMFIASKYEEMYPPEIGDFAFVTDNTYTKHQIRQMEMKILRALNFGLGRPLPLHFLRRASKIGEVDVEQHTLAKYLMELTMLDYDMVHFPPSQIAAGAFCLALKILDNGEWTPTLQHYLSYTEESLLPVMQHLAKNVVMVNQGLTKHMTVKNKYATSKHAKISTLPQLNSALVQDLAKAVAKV
Sequence of recombinant human cdc2 (P06493 whole entry): as the sequence (P06493 whole entry) above
T3 sequence (P06493 whole entry): as above
T3 sequence (P14635 whole entry): as the sequence (P14635 whole entry partner) above
Sequence of biotinylated Aβ 1-42 (P05067 672-713 limits assumed): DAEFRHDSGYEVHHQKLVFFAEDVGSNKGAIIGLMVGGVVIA

For `CC(C)C[C@H](NC(=O)[C@H](CC(C)C)NC(=O)[C@H](CCCNC(=N)N)NC(=O)[C@H](CCCCN)NC(=O)[C@H](CCCCN)NC(=O)[C@H](Cc1c[nH]cn1)NC(=O)[C@H](CC(N)=O)NC(=O)[C@H](Cc1ccccc1)NC(=O)[C@@H](NC(=O)[C@@H](N)C(C)C)C(C)C)C(=O)O` [AβAS(F) 14-23] (H-VVFNHKKRLL-OH), the “block of the cytotoxicity of Aβ 1-42” value [1] was “able to block” and the “block of the cytotoxicity of Aβ fragments containing residues 17-35” value [1] was “able to block”.

In the case of `CC(C)C[C@H](N)C(=O)N[C@@H](Cc1ccccc1)C(=O)N1CCC[C@H]1C(=O)N[C@@H](CCCNC(=N)N)C(=O)N[C@@H](Cc1ccc(O)cc1)C(=O)N[C@@H](Cc1ccc(O)cc1)C(=O)N1CCC[C@H]1C(=O)N[C@@H](CCC(=O)O)C(=O)N[C@@H](Cc1ccc(O)cc1)C(=O)N[C@@H](Cc1c[nH]cn1)C(=O)O` [AβAS(F) 27-36] (H-LFPRYYPEYH-OH), the “block of the cytotoxicity of Aβ 1-42” value [1] is reported as “able to block” and the “block of the cytotoxicity of Aβ fragments containing residues 25-35” value [1] is reported as “able to block”.

With `C[C@H](NC(=O)CN)C(=O)N1CCC[C@H]1C(=O)N[C@@H](CC(N)=O)C(=O)N[C@@H](Cc1ccc(O)cc1)C(=O)N[C@@H](Cc1ccc(O)cc1)C(=O)N1CCC[C@H]1C(=O)N[C@@H](CC(N)=O)C(=O)N[C@@H](CO)C(=O)N[C@@H](Cc1ccccc1)C(=O)O` [CAβBP] the “block of the inhibition of catalase enzyme activity by Aβ 1-42” value [2] was “able to block”, the “block of the inhibition of catalase enzyme activity by Aβ fragments containing residues 31-35” value [2] was “able to block” and the “binding of biotinylated Aβ 1-42” value (biotinylated Aβ 1-42) was “specifically bound”. The “block of the cytotoxicity of Aβ 1-42” value [1] was “able to block”, the “block of the cytotoxicity of Aβ fragments containing residues 31-35” value [1] was “able to block” and the “binding of biotinylated Aβ 25-35” value (biotinylated Aβ 25-35) was “specifically bound”.

With “Aβ 1-42: major form of Amyloid-β protein, residues 1-42” the “binding to human cdc2” value (recombinant human cdc2) was “bound” and the “phosphorylation by cdc2 (incorporation of 32P from γ32P-ATP)” value [3] was “incorporated”.

For “Aβ 1-43: Amyloid-β 1-43 region, SEQ ID NO. 2”, the “binding to human cdc2” value (recombinant human cdc2) was “binds to” and the “phosphorylation by cdc2 (incorporation of 32P from γ32P-ATP)” value [3] was “phosphorylated”.

“Aβ 17-28: Aβ fragment, residues 17-28 (LVFFAEDVGSNK)” was tested, and the “inhibition of the binding of Aβ to cdc2” value (recombinant human cdc2; biotinylated Aβ 1-40 (FIG. 5)) was “inhibited” and the “inhibition of phosphorylation of Aβ” value [3] was “inhibited”.

In the case of “Aβ 17-35 S26A: Aβ 17-35 in which the serine residue for phosphorylation has been mutated to an alanine residue (LVFFAEDVGANKGAIIGLM; Amyloid-beta protein 42; UniProt P05067 688-706, looked up, variant S26A)”, the “levels of immunoreactive Aβ (ir-Aβ) in exposed cells” value (from here on “levels of immunoreactive Aβ (ir-Aβ)”) (Human NT-2 neurons [4]) is reported as “increased levels”, the “ir-pSAβ in extracts of exposed cells” value (Human NT-2 neurons [4]) is reported as “no difference to control cells” and the “effect on MTT utilisation” value (Human NT-2 neurons [5]) is reported as “no effect”.

“Aβ 17-35 pS26: Aβ 17-35 peptide with a phosphorylated serine residue (LVFFAEDVG[pS]NKGAIIGLM; UniProt P05067 688-706, looked up, fragment)” was tested, and the “levels of immunoreactive Aβ (ir-Aβ)” value (Human NT-2 neurons [4]) was “increased levels”, the “ir-pSAβ in extracts of exposed cells” value (Human NT-2 neurons [4]) was “no difference to control cells” and the “potency in MTT reduction compared with the non-phosphorylated peptide” value (Human NT-2 neurons [5]) was “significantly more potent”. The “effect on MTT utilisation” value (Human NT-2 neurons [5]) was “dose dependent reduction”.

With “Aβ 17-35: Aβ fragment 17-35 containing serine 26, ERAB binding and cytotoxic domains (LVFFAEDVGSNKGAIIGLM)” the “levels of immunoreactive Aβ (ir-Aβ)” value (Human NT-2 neurons [4]) was “increased levels”, the “ir-pSAβ in extracts of exposed cells” value (Human NT-2 neurons [4]) was “increased amounts” and the “effect on MTT utilisation” value (Human NT-2 neurons [5]) was “dose dependent reduction”. The “effect on phosphorylation of the H1 peptide by cdc2/cyclin B1” value (cdc2/cyclin B1) was “increased”.

“Aβ 31-35: shortest cytotoxic form of Aβ (IIGLM)” was tested, and the “effect on phosphorylation of the H1 peptide by cdc2/cyclin B1” value (cdc2/cyclin B1) was “increased”.

“CDKP1: synthetic peptide corresponding to cdc2 residues 119-133 (CHSRRVLHRDLKPQN)” was tested, and the “inhibition of phosphorylation of Aβ” value [3] was “inhibited”.

“PKTPKKAKKL (listed as Homo sapiens) [H1 peptide]” gave a Km ([3]; substrate of cdc2/cyclin B1, read-out: Michaelis constant (KM) for the phosphorylation) of 2700 nM.
